Data on eight molecules can be found in patent US20240417410A1, “TRICYCLIC COMPOUNDS FOR THE TREATMENT OF CANCER” (Hoffmann-La Roche Inc., priority 2023, published 2024).

The term IC50 denotes the point on the concentration scale where inhibition reaches its midpoint. Read a high IC50 as weaker potency in that assay.

SMILES strings stand for the structures.

One assay relates to AGS cells (KRAS G12D). Briefly: Cell viability assay (Cell Counting Kit-8, 3-day). The conditions noted are these: Homo sapiens, 72 h, 72 hrs incubation. It counts as cell-based, human. How it is done: (§1) The purpose of this cellular assay was to determine the effects of test compounds on the proliferation of human cancer cell lines NCI-H358 (ATCC-CRL5807) cells, AGS (ATCC-CRL-1739) cells, SW620 (ATCC-CCL-227) over a 3-day treatment period by quantifying the amount of NADPH present at endpoint using Cell Counting Kit-8.
(§2) Cells were seeded at 5,000 cells/well (NCI-H358), 2,000 cells/well (AGS) 2,000 cells/well (SW620) in 96-well assay plates (Corning-3699) and incubated overnight. On the day of the assay, diluted compounds were then added in a final concentration of 0.5% DMSO. After 72 hrs incubation, a tenth of the volume of cell counting kit 8 (Dnjindo-CK04) was added into each well. Read the signal (OD450 minus OD650) using EnVision after 2 hrs incubation. IC50 was determined by fitting a 4-parameter sigmoidal concentration response model.

For assay [1], the system named is NCI-H358 cells (KRAS G12C). Briefly: Cell viability assay (Cell Counting Kit-8, 3-day). The class given is cell-based, human. The conditions noted are these: Homo sapiens, NCI-H358, 72 h, NCI-H358, 72 hrs incubation. How it is done:
as §1, §2
On the technique in general: Tetrazolium assays rely on reduction of a dye to a coloured formazan, in cell work by metabolically active cells.

The test system of the next assay is SW620 cells (KRAS G12V). Briefly: Cell viability assay (Cell Counting Kit-8, 3-day). It counts as cell-based, human. The conditions noted are these: Homo sapiens, SW-620; SW620, 72 hrs incubation. How it is done: as §1, §2
Assay [2] has as its system phosphorylation of ERK, KRAS G12C in NCI-H358 cells. Briefly: pERK inhibition assay. The class given is cell-based. The conditions noted are these: Homo sapiens, NCI-H358, 4 h. How it is done:
(§3) This assay is to measure the ability of test compounds in inhibiting the phosphorylation of ERK, the downstream signaling of KRAS G12C in NCI-H358 cells, KRAS G12D in AGS cells, and KRAS G12V in SW620. NCI-H358 (ATCC-CRL5807) cells, AGS (ATCC-CRL-1739) cells, SW620 (ATCC-CCL-227) cells were all grown and maintained using RPMI-1640 medium (Thermo Fisher Scientific) with 10% fetal bovine serum and 1% penicillin/streptomycin. On the day prior to compound addition, cells were plated in tissue culture-treated 96 well plates (Corning-3699) at a density of 30,000 cell/well, 20,000 cell/well, 30,000 cell/well for NCI-H358, AGS and SW620 respectively, and allowed for attachment overnight. Diluted compounds were then added in a final concentration of 0.5% DMSO. After 4 hours of incubation, the medium was removed, 100 μL of 4% formaldehyde was added, and the assay plates were incubated at room temperature for 20 minutes. The plates were then washed once with phosphate buffered saline (PBS), and permeabilized with 100 μL of chilled methanol for 10 minutes. Non-specific antibody binding to the plates was blocked using 50 μL 1X BSA blocking buffer (Thermo-37520, 10-fold dilution by Phosphate-Buffered Saline Tween (PBST) for at least 1 hour at room temperature.
(§4) The amount of phosphor-ERK was determined using an antibody specific for phosphorylated form of ERK. Primary antibody (PERK, CST-4370, Cell Signaling Technology) was diluted 1:300 in blocking buffer, with 50 μL aliquoted to each well, and incubated overnight at 4° C. Cells was washed five times for 5 minutes with PBST. Secondary antibody (HRP-linked anti-rabbit IgG, CST-7074, Cell Signaling Technology) was diluted 1:1000 in blocking buffer, and 50 μL was added to each well and incubated 1-2 hrs at room temperature. Cells was washed […] for 5 minutes with PBST, 100 μL TMB ELISA substrate (abcam-ab171523) were added and gently shake for 20 minutes. 50 μL stop solution (abcam-ab 171529) were added, and then read the signal (OD450) by EnVision.
(§5) IC50 was determined by fitting a 4-parameter sigmoidal concentration response model.

The test system of assay [3] is phosphorylation of ERK, KRAS G12D in AGS cells. Briefly: pERK inhibition assay. The class given is cell-based. Conditions: Homo sapiens, AGS, 4 h. How it is done:
as §3, §4, §5

Assay [4] concerns phosphorylation of ERK, KRAS G12V in SW620. Briefly: pERK inhibition assay. It counts as cell-based. The conditions noted are these: Homo sapiens, SW-620, 4 h, SW620 cells. How it is done: as §3, §4, §5

Take `CO[C@@H](C)c1ncc(N2CCOCC2)cc1-c1c2c3cc(cc4c3n1CC(F)(F)C4)-c1csc(n1)C[C@H](NC(=O)[C@H]1C[C@@H]1c1ccccc1)C(=O)N1CCC[C@H](N1)C(=O)OCC(C)(C)C2` (atropisomer, axis not shown; (M)) [Example 79, (1S,2S)-N-[(7S,13S)-23,23-difluoro-(20M)-20-[2-[(1S)-1-methoxyethyl]-5-morpholino-3-pyridyl]-17,17-dimethyl-8,14-dioxo-15-oxa-4-thia-9,21,30,31-tetrazahexacyclo[23.3.1.1^2,5.1^9,13.0^19,27.0^21,26]hentriaconta-1 (28),2,5 (31),19,25 (29),26-hexaen-7-yl]-2-phenyl-cyclopropanecarboxamide]: the IC50 with AGS cells (KRAS G12D) was 57 nM; in assay [1], 13.2 nM; in the assay on SW620 cells (KRAS G12V) it was 3.2 nM; in assay [2], 1.6 nM; in assay [3], 16.2 nM; in assay [4] it was 1.4 nM.

`CO[C@@H](C)c1ncc(N2CCN(C)CC2)cc1-c1c2c3cc(cc4c3n1CCC4)-c1csc(n1)C[C@H](NC(=O)C1(C)CC1(F)F)C(=O)N1CCC[C@H](N1)C(=O)OCC(C)(C)C2` (stereo partly drawn) [Example 19, 2,2-difluoro-N-[(7S,13S)-(20M)-20-[2-[(1S)-1-methoxyethyl]-5-(4-methylpiperazin-1-yl)-3-pyridyl]-17,17-dimethyl-8,14-dioxo-15-oxa-4-thia-9,21,30,31-tetrazahexacyclo[23.3.1.1^2,5.1^9,13.0^19,27.0^21,26]hentriaconta-1 (28),2,5 (31),19,25 (29),26-hexaen-7-yl]-1-methyl-cyclopropanecarboxamide]: the concentration for half-maximal inhibition (IC50) in the assay on AGS cells (KRAS G12D) came to 98.7 nM; in assay [1], 17.1 nM; with SW620 cells (KRAS G12V), 3.8 nM; in assay [2], 1.9 nM; in assay [3], 20.7 nM; in assay [4] it was 2.7 nM.

`CO[C@@H](C)c1ncc(N2CCN(C)CC2)cc1-c1c2c3cc(cc4c3n1CCC4)-c1csc(n1)C[C@H](NC(=O)[C@@H]1C[C@H]1c1ccccc1F)C(=O)N1CCC[C@H](N1)C(=O)OCC(C)(C)C2` [Example 28, (1R,2R)-2-(2-fluorophenyl)-N-[(7S,13S)-(20M)-20-[2-[(1S)-1-methoxyethyl]-5-(4-methylpiperazin-1-yl)-3-pyridyl]-17,17-dimethyl-8,14-dioxo-15-oxa-4-thia-9,21,30,31-tetrazahexacyclo[23.3.1.1^2,5.1^9,13.0^19,27.0^21,26]hentriaconta-1 (28),2,5 (31),19,25 (29),26-hexaen-7-yl]cyclopropanecarboxamide]: the IC50 with AGS cells (KRAS G12D) worked out at 22.3 nM; in assay [1] it was 7 nM; with SW620 cells (KRAS G12V), 1.5 nM; in assay [2], 1.2 nM; in assay [3] it was 9.4 nM; in assay [4] it was 1.3 nM.

As for `CO[C@@H](C)c1ncc(N2CCN(C)CC2)cc1-c1c2c3cc(cc4c3n1CCC4)-c1csc(n1)C[C@H](NC(=O)[C@H]1C[C@@H]1c1ccccc1F)C(=O)N1CCC[C@H](N1)C(=O)OCC(C)(C)C2` [Example 29, (1S,2S)-2-(2-fluorophenyl)-N-[(7S,13S)-(20M)-20-[2-[(1S)-1-methoxyethyl]-5-(4-methylpiperazin-1-yl)-3-pyridyl]-17,17-dimethyl-8,14-dioxo-15-oxa-4-thia-9,21,30,31-tetrazahexacyclo[23.3.1.1^2,5.1^9,13.0^19,27.0^21,26]hentriaconta-1 (28),2,5 (31),19,25 (29),26-hexaen-7-yl]cyclopropanecarboxamide], the IC50 is 11.4 nM in the assay on AGS cells (KRAS G12D); 2.5 nM in assay [1]; 0.8 nM in the assay with SW620 cells (KRAS G12V); under 0.6 nM in assay [2]; 1.6 nM in assay [3]; under 0.6 nM in assay [4].

With `CO[C@@H](C)c1ncc(N2CCN(C)CC2)cc1-c1c2c3cc(cc4c3n1CCC4)-c1csc(n1)C[C@H](NC(=O)[C@H]1C[C@@H]1c1ccncc1)C(=O)N1CCC[C@H](N1)C(=O)OCC(C)(C)C2` [Example 57, (1S,2S)-N-[(7S,13S)-(20M)-20-[2-[(1S)-1-methoxyethyl]-5-(4-methylpiperazin-1-yl)-3-pyridyl]-17,17-dimethyl-8,14-dioxo-15-oxa-4-thia-9,21,30,31-tetrazahexacyclo[23.3.1.1^2,5.1^9,13.0^19,27.0^21,26]hentriaconta-1 (28),2,5 (31), 19,25 (29),26-hexaen-7-yl]-2-(4-pyridyl)cyclopropanecarboxamide], the IC50 with AGS cells (KRAS G12D) came to 27.6 nM; in assay [1], 5.4 nM; in the assay with SW620 cells (KRAS G12V), 1.5 nM; in assay [2] it was 1.1 nM; in assay [3], 6.1 nM; in assay [4], 1.3 nM.

In the case of `CO[C@@H](C)c1ncc(N2CCN(C)CC2)cc1-c1c2c3cc(cc4c3n1CCC4)-c1csc(n1)C[C@H](NC(=O)[C@@H]1C[C@H]1c1ccncc1)C(=O)N1CCC[C@H](N1)C(=O)OCC(C)(C)C2` [Example 58, (1R,2R)-N-[(7S,13S)-(20M)-20-[2-[(1S)-1-methoxyethyl]-5-(4-methylpiperazin-1-yl)-3-pyridyl]-17,17-dimethyl-8,14-dioxo-15-oxa-4-thia-9,21,30,31-tetrazahexacyclo[23.3.1.1^2,5.1^9,13.0^19,27.0^21,26]hentriaconta-1 (28),2,5 (31),19,25 (29),26-hexaen-7-yl]-2-(4-pyridyl)cyclopropanecarboxamide], the 50% inhibitory concentration (IC50) in the assay with AGS cells (KRAS G12D) amounted to 38.5 nM; in assay [1], 7.6 nM; with SW620 cells (KRAS G12V), 2 nM; in assay [2], 6.4 nM; in assay [3] it was 20.5 nM; in assay [4], 4.9 nM.

As for `CO[C@@H](C)c1ncc(N2CCOCC2)cc1-c1c2c3cc(cc4c3n1C(C)(C)CC4)-c1csc(n1)C[C@H](NC(=O)[C@H]1C[C@@H]1C)C(=O)N1CCC[C@H](N1)C(=O)OCC(C)(C)C2` [Example 125, (1S,2S)-N-[(7S,13S)-(20M)-20-[2-[(1S)-1-methoxyethyl]-5-morpholino-3-pyridyl]-17,17,22,22-tetramethyl-8,14-dioxo-15-oxa-4-thia-9,21,30,31-tetrazahexacyclo[23.3.1.1^2,5.1^9,13.0^19,27.0^21,26]hentriaconta-1 (29),2,5 (31),19,25,27-hexaen-7-yl]-2-methyl-cyclopropanecarboxamide], the IC50 amounted to 4720 nM in the assay with AGS cells (KRAS G12D); 1100 nM in assay [1]; 208 nM in the assay on SW620 cells (KRAS G12V); 303 nM in assay [2]; 481 nM in assay [3]; 84 nM in assay [4].

Take `CO[C@@H](C)c1ncc(N2CCOCC2)cc1-c1c2c3cc(cc4c3n1CCCC4)-c1csc(n1)C[C@H](NC(=O)[C@H]1[C@H](C)[C@@H]1C)C(=O)N1CCC[C@H](N1)C(=O)OCC(C)(C)C2` [Example 126, (1r,2R,3S)-N-[(7S,13S)-(20M)-20-[2-[(1S)-1-methoxyethyl]-5-morpholino-3-pyridyl]-17,17-dimethyl-8,14-dioxo-15-oxa-4-thia-9,21,31,32-tetrazahexacyclo[24.3.1.1^2,5.1^9,13.0^19,28.0^19,28.0^21,27]dotriaconta-1 (29),2,5 (32),19,26 (30),27-hexaen-7-yl]-2,3-dimethyl-cyclopropanecarboxamide]: the concentration for half-maximal inhibition (IC50) with AGS cells (KRAS G12D) stood at 757 nM; in assay [1], 40 nM; in the assay on SW620 cells (KRAS G12V) it was 7 nM; in assay [2] it was 5 nM; in assay [3], 50 nM; in assay [4] it was 3 nM.
